From patent US9889184B2 (priority 2008, dated 2018)
Like-named read-outs stand apart in the source and are kept apart here.

Assays:
Fov = assay: Effect of metal ions on NaD1 activity against Fov; type: cell-based, Fusarium oxysporum f. sp. vasinfectum; conditions: NaD1 10 μM, growth of Fov
Source text: Antifungal activity against Fusarium oxysporum f. sp. vasinfectum (Fov, Australian isolate VCG01111 isolated from cotton; from Wayne O'Neill, Farming Systems Institute, DPI, Queensland, Australia), Thielaviopsis basicola (gift from David Nehl, NSW DPI, Narrabri, Australia), Verticillium dahliae (from Helen McFadden, CSIRO Plant Industry, Black Mountain, Australia), Leptosphaeria maculans (from Barbara Howlett, University of Melbourne, Victoria, Australia) and Aspergillus nidulans (from Michael Hynes, University of Melbourne) was assessed essentially as described in Broekaert et al, 1990. Spores were isolated from sporulating cultures growing in either half-strength potato dextrose broth (PDB) (Fov and T. basicola), Czapeck-Dox Broth (V. dahliae) (Difco Laboratories) or 10% (v/v) clarified V8 medium (L. maculans and A. nidulans) by filtration through sterile muslin. Spore concentrations were determined using a hemocytometer and adjusted to 5×10^4 spores/mL in the appropriate growth medium. Spore suspensions (80 μL) were added to the wells of sterile 96-well flat-bottomed microtitre plates along with 20 μL of filter-sterilized (0.22 μm syringe filter; Millipore) NaD1, or water to give final protein concentrations of 0-10 μM. The plates were shaken briefly and placed in the dark at 25° C. without shaking until the optical density at 595 nm of the water control reached approximately 0.2 (24-72 h depending on growth rate). Hyphal growth was estimated by measuring the optical density at 595 nm using a microtitre plate reader (SpectraMax Pro M2; Molecular Devices). Each test was performed in quadruplicate.
The activity of NaD1 against Fov was examined as described with varying concentrations of CaCl2 (0.1, 0.2, 0.5, 1.0 and 2.0 μM) or MgCl2 (1.0, 2.0, 10, 20 and 50 μM) present in the medium to determine the effects of divalent cations on NaD1 activity.

Fusarium graminearum = type: cell-based

Question: “NaD1: plant defensin isolated from floral tissue of Nicotiana alata (SEQ ID NO:12) (RECKTESNTFPGICITKPPCRKACISEKFTDGHCSKILRRCLCTKPC; Nicotiana alata (NaD1))” was tested. Which “Ca2+ more antagonistic than Mg2+” value (Fov) did it give?
Answer: greater than 20 times

Question: What about the “CaCl2 concentration giving complete inactivation of NaD1” value (Fov) of the same substance?
Answer: < 2 mM

Question: And the “MgCl2 concentration giving complete inactivation of NaD1” value (Fov)?
Answer: 50 mM

Question: And the “toxicity with Fusarium graminearum” value (Fusarium graminearum; 0.5 μM NaD1 combined with 0.5 μM/mL NaCys2, FIG. 3B)?
Answer: significantly enhanced

Question: And the “toxicity with Fusarium graminearum” value (Fusarium graminearum; 0.5 μM NaD1 in the absence of NaCys2, FIG. 3B)?
Answer: very low
